Experimental findings from patent US20050070510A1, “Substituted tetracycline compounds as synergistic antifungal agents” (Paratek Pharmaceuticals, Inc., priority 2001, published 2005) are described below.

The series deals with COS-1 cells. Kind of series: In vitro mammalian cytotoxicity assay (Resazurin).
Take `CN(C)c1cc(CNC(=O)NCC(Cl)(Cl)Cl)c(O)c2c1C[C@@]1(N)C[C@@]3(N)[C@H](N(C)C)C(O)=C(C(N)=O)C(=O)[C@@]3(C#N)C(O)=C1C2=O` [MX]: the “In Vitro Cytotoxicity” value is listed as “** (toxicities less than 25 μg/mL are represented by **)”. Turning to `CN(C)c1cc(CNC(=O)Nc2ccc(F)cc2)c(O)c2c1C[C@@]1(N)C[C@@]3(N)[C@H](N(C)C)C(O)=C(C(N)=O)C(=O)[C@@]3(C#N)C(O)=C1C2=O` [MY], the “In Vitro Cytotoxicity” value was “** (toxicities less than 25 μg/mL are represented by **)”. For the molecule `CN(C)c1cc(CNC(=O)Nc2ccc3c(c2)OCO3)c(O)c2c1C[C@@]1(N)C[C@@]3(N)[C@H](N(C)C)C(O)=C(C(N)=O)C(=O)[C@@]3(C#N)C(O)=C1C2=O` [MZ], the “In Vitro Cytotoxicity” value is given as “* (toxicities greater than >25 μg/ml are represented by *)”. On to `CC(=O)c1ccc(NC(=O)NCc2cc(N(C)C)c3c(c2O)C(=O)C2=C(O)[C@]4(C#N)C(=O)C(C(N)=O)=C(O)[C@@H](N(C)C)[C@]4(N)C[C@]2(N)C3)cc1` [NA], for which the “In Vitro Cytotoxicity” value is recorded as “* (toxicities greater than >25 μg/ml are represented by *)”. With `CN(C)[C@@H]1C(O)=C(C(N)=O)C(=O)[C@@]2(C#N)C(O)=C3C(=O)c4c(O)ccc(C#CCCC#Cc5ccc(O)c6c5C[C@@]5(N)C[C@@]7(N)[C@H](N(C)C)C(O)=C(C(N)=O)C(=O)[C@@]7(C#N)C(O)=C5C6=O)c4C[C@@]3(N)C[C@@]12N` [NC], the “In Vitro Cytotoxicity” value is recorded as “* (toxicities greater than >25 μg/ml are represented by *)”. In the case of `CN(C)c1ccc(NC(=O)NCc2cc(N(C)C)c3c(c2O)C(=O)C2=C(O)[C@]4(C#N)C(=O)C(C(N)=O)=C(O)[C@@H](N(C)C)[C@]4(N)C[C@]2(N)C3)cc1` [ND], the “In Vitro Cytotoxicity” value is listed as “* (toxicities greater than >25 μg/ml are represented by *)”. In the case of `CN(C)c1cc(CNC(=O)Nc2ccc(OC(F)(F)F)cc2)c(O)c2c1C[C@@]1(N)C[C@@]3(N)[C@H](N(C)C)C(O)=C(C(N)=O)C(=O)[C@@]3(C#N)C(O)=C1C2=O` [NE] it was “* (toxicities greater than >25 μg/ml are represented by *)”; in that of `CCCCCOC(=O)NCc1cc(N(C)C)c2c(c1O)C(=O)C1=C(O)[C@]3(C#N)C(=O)C(C(N)=O)=C(O)[C@@H](N(C)C)[C@]3(N)C[C@]1(N)C2` [NF], “** (toxicities less than 25 μg/mL are represented by **)”. As to `COc1ccc(CNCc2cccc(F)c2)cc1-c1ccc(O)c2c1C[C@@]1(N)C[C@@]3(N)[C@H](N(C)C)C(O)=C(C(N)=O)C(=O)[C@@]3(C#N)C(O)=C1C2=O` [NG], the “In Vitro Cytotoxicity” value is on record as “** (toxicities less than 25 μg/mL are represented by **)”.

Consider `COc1ccc(CNCCc2ccccc2)cc1-c1ccc(O)c2c1C[C@@]1(N)C[C@@]3(N)[C@H](N(C)C)C(O)=C(C(N)=O)C(=O)[C@@]3(C#N)C(O)=C1C2=O` [NH], for which the “In Vitro Cytotoxicity” value is listed as “** (toxicities less than 25 μg/mL are represented by **)”.

On to `CC#Cc1cc(C#CC)c2c(c1O)C(=O)C1=C(O)[C@]3(C#N)C(=O)C(C(N)=O)=C(O)[C@@H](N(C)C)[C@]3(N)C[C@]1(N)C2` [NI], for which the “In Vitro Cytotoxicity” value was “** (toxicities less than 25 μg/mL are represented by **)”. The result for `COc1ccc(CNCc2cccc(Cl)c2)cc1-c1ccc(O)c2c1C[C@@]1(N)C[C@@]3(N)[C@H](N(C)C)C(O)=C(C(N)=O)C(=O)[C@@]3(C#N)C(O)=C1C2=O` [NJ] reads “** (toxicities less than 25 μg/mL are represented by **)”; that for `CCOC(=O)CNCc1ccc(OC)c(-c2ccc(O)c3c2C[C@@]2(N)C[C@@]4(N)[C@H](N(C)C)C(O)=C(C(N)=O)C(=O)[C@@]4(C#N)C(O)=C2C3=O)c1` [NK], “* (toxicities greater than >25 μg/ml are represented by *)”. As for `CCCCOCCCNCc1ccc(OC)c(-c2ccc(O)c3c2C[C@@]2(N)C[C@@]4(N)[C@H](N(C)C)C(O)=C(C(N)=O)C(=O)[C@@]4(C#N)C(O)=C2C3=O)c1` [NL], the “In Vitro Cytotoxicity” value is reported as “* (toxicities greater than >25 μg/ml are represented by *)”.

For `CN(C)[C@@H]1C(O)=C(C(N)=O)C(=O)[C@@]2(C#N)C(O)=C3C(=O)c4c(O)ccc(-c5ccc(C(=O)O)c6ccccc56)c4C[C@@]3(N)C[C@@]12N` [NM], the “In Vitro Cytotoxicity” value is “** (toxicities less than 25 μg/mL are represented by **)”.
